In this test the target is T1, sGC (Rattus norvegicus, UniProt P20595).
T1 construct: expressed in transfected cells; host or cells: CHO reporter cell
T1 sequence (P19686 whole entry partner): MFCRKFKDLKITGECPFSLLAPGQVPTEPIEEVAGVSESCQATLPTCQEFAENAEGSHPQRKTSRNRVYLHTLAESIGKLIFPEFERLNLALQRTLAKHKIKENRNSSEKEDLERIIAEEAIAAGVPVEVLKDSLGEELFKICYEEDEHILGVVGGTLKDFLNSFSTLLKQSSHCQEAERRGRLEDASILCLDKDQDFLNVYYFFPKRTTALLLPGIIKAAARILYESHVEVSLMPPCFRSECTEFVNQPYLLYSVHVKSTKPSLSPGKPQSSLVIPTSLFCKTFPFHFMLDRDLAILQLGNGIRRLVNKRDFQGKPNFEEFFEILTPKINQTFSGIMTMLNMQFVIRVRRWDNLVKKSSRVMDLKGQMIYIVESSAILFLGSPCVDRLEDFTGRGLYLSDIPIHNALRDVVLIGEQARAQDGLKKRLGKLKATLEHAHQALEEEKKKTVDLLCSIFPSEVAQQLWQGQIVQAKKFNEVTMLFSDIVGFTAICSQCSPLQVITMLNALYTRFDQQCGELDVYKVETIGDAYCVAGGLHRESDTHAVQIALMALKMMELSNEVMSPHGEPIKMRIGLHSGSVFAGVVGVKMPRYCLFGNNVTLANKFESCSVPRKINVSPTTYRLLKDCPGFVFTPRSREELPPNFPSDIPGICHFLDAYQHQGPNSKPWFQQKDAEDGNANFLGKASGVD
T1 sequence (P20595 whole entry): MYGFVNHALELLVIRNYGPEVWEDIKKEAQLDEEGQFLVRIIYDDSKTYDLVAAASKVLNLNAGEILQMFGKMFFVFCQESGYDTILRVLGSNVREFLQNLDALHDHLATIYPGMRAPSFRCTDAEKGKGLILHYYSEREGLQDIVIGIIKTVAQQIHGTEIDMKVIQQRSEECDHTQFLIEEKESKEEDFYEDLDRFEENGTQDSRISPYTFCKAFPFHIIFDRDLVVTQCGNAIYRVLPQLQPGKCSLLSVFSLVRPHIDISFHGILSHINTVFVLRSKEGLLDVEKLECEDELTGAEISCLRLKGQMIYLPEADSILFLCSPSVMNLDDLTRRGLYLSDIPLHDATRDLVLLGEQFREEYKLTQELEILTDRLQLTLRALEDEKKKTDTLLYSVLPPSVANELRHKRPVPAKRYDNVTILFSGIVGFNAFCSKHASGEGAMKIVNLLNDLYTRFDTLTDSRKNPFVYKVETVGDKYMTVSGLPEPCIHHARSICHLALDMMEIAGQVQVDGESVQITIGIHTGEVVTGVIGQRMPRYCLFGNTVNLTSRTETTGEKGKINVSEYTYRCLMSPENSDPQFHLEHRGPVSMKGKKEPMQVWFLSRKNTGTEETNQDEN
The experiment in a line: Action at a recombinant guanylate cyclase reporter cell line (CHO reporter cell). The note with it: CHO reporter cell in vitro. The class given is cell-based. Here is the method:
The cellular action of the compounds according to the invention is determined at a recombinant guanylate cyclase reporter cell line, as described in F. Wunder et al., Anal. Biochem. 339, 104-112 (2005).
In the case of `O=C(Nc1cccc(CC2(C(=O)O)CC2)c1F)C(c1ccc(Cl)cc1)C1CCCC1` (racemic) [Example 6, (+/−)-1-(3-{[(4-chlorophenyl)(cyclopentyl)acetyl]-amino}-2-fluorobenzyl)cyclopropanecarboxylic acid], the “MEC (minimum effective concentration), sGC-activating activity in the CHO reporter cell” value (shortened to “MEC (minimum effective concentration)”) came out at 30 nM.

On to `O=C(Nc1cc(CC2(C(=O)O)CC2)ccc1F)C(c1ccc(Cl)cc1)C1CCCC1` (racemic) [Example 8, (+/−)-1-(3-{[(4-chlorophenyl)(cyclopentyl)acetyl]-amino}-4-fluorobenzyl)cyclopropanecarboxylic acid], for which the “MEC (minimum effective concentration)” value turned out to be 3 nM.

For `CCc1ccc(C(C(=O)Nc2cc(CC3(C(=O)O)CC3)ccc2F)C(C)C(F)(F)F)cc1` (racemic) [Example 9, (+/−)-1-(3-{[2-(4-ethylphenyl)-4,4,4-trifluoro-3-methylbutanoyl]amino}-4-fluorobenzyl)-cyclopropanecarboxylic acid], the “MEC (minimum effective concentration)” value was 1 nM.

On to `O=C(Nc1cc(CC2(C(=O)O)CC2)ccc1F)C(c1ccc(Cl)cc1F)C1CCCC1` (racemic) [Example 11, (+/−)-1-(3-{[(4-chloro-2-fluorophenyl)(cyclo-pentyl)acetyl]amino}-4-fluorobenzyl)-cyclopropanecarboxylic acid], for which the “MEC (minimum effective concentration)” value is reported as 1 nM.

Take `O=C(Nc1cccc(CC2(C(=O)O)CC2)c1)C(c1ccc(C=C(F)F)cc1)C1CCCC1` (racemic) [Example 12, (+/−)-1-[3-({cyclopentyl[4-(2,2-difluorovinyl)-phenyl]acetyl}amino)benzyl]cyclopropane-carboxylic acid]: the “MEC (minimum effective concentration)” value is given as 100 nM.

Turning to `C=Cc1ccc(C(C(=O)Nc2cccc(CC3(C(=O)O)CC3)c2)C2CCCC2)cc1` (racemic) [Example 13, (+/−)-1-(3-{[cyclopentyl(4-vinylphenyl)acetyl]-amino}benzyl)cyclopropanecarboxylic acid], the “MEC (minimum effective concentration)” value is 30 nM.

Take `O=C(Nc1cccc(CC2(C(=O)O)CC2)c1)C(c1ccc(CC(F)F)cc1)C1CCCC1` (racemic) [Example 14, (+/−)-1-[3-({cyclopentyl[4-(2,2-difluoroethyl)-phenyl]acetyl}amino)benzyl]cyclopropane-carboxylic acid]: the “MEC (minimum effective concentration)” value turned out to be 100 nM.

For the compound `N#Cc1ccc(C(C(=O)Nc2cc(CC3(C(=O)O)CC3)ccc2F)C2CCCC2)cc1` (racemic) [Example 15, (+/−)-1-(3-{[(4-cyanophenyl)(cyclopentyl)acetyl]-amino}-4-fluorobenzyl)cyclopropanecarboxylic acid], the “MEC (minimum effective concentration)” value came out at 30 nM.

For `O=C(Nc1cc(CC2(C(=O)O)CC2)ccc1F)C(c1ccc([N+](=O)[O-])cc1)C1CCCC1` (racemic) [Example 16, (+/−)-1-(3-{[(4-nitrophenyl)(cyclopentyl)acetyl]-amino}-4-fluorobenzyl)cyclopropanecarboxylic acid], the “MEC (minimum effective concentration)” value was determined as 10 nM.

For `O=C(Nc1cccc(CC2(C(=O)O)CC2)c1)C(c1ccc(C(F)(F)F)cc1)C1CCCC1` (racemic) [Example 53, (+/−)-1-[3-({Cyclopentyl[4-(trifluoromethyl)phenyl]acetyl}amino)benzyl]cyclopropanecarboxylic acid], the “MEC (minimum effective concentration)” value was 10 nM.

Consider `O=C(Nc1cc(CC2(C(=O)O)CC2)ccc1F)C(c1ccc(Cl)cc1)C1CCCC1(F)F` (racemic) [Example 65, 1-(3-{[(4-Chlorophenyl)(2,2-difluorocyclopentyl)acetyl]amino}-4-fluorobenzyl)cyclopropane-carboxylic acid], for which the “MEC (minimum effective concentration)” value is given as 5.3 nM.

As for `O=C(Nc1cc(CC2(C(=O)O)CC2)ccc1F)C(c1ccc(Cl)cc1)C1CCC(F)(F)C1` (single isomer, unassigned) [Example 78, 1-(3-{[(4-Chlorophenyl)(3,3-difluorocyclopentyl)acetyl]amino}-4-fluorobenzyl)cyclopropanecarboxylic acid], the “MEC (minimum effective concentration)” value turned out to be 3 nM.

`CC(C(C(=O)Nc1cccc(CC2(C(=O)O)CC2)c1)c1ccc(C(F)(F)F)cc1)C(F)(F)F` (single isomer, unassigned) [Example 80, 1-[3-({4,4,4-Trifluoro-3-methyl-2-[4-(trifluoromethyl)phenyl]butanoyl}amino)benzyl]cyclo-propanecarboxylic acid]: the “MEC (minimum effective concentration)” value is 3 nM.

Take `CC(C(C(=O)Nc1cccc(CC2(C(=O)O)CC2)c1)c1ccc(Cl)cc1)C(F)(F)F` (single isomer, unassigned) [Example 84, 1-(3-{[2-(4-Chlorophenyl)-4,4,4-trifluoro-3-methylbutanoyl]amino}benzyl)cyclopropane-carboxylic acid]: the “MEC (minimum effective concentration)” value was 20 nM.

For `C[C@H]([C@H](C(=O)Nc1cc(C(O)C2(C(=O)O)CC2)ccc1Cl)c1ccc(Cl)cc1)C(F)(F)F` (single isomer, unassigned) [Example 103], the “MEC (minimum effective concentration)” value is 60 nM.

As to `C[C@H]([C@H](C(=O)Nc1cc(C(O)C2(C(=O)O)CC2)ccc1Cl)c1ccc(Cl)cc1)C(F)(F)F` (single isomer, unassigned) [Example 104], the “MEC (minimum effective concentration)” value is given as 20 nM.

As for `C[C@H]([C@H](C(=O)Nc1cc(C(OC2CC2)C2(C(=O)O)CC2)ccc1Cl)c1ccc(Cl)cc1)C(F)(F)F` (single isomer, unassigned) [Example 113], the “MEC (minimum effective concentration)” value was determined as 0.3 nM.

Regarding `C[C@H]([C@H](C(=O)Nc1cc(C(OC2CC2)C2(C(=O)O)CC2)ccc1Cl)c1ccc(Cl)cc1)C(F)(F)F` (single isomer, unassigned) [Example 114], the “MEC (minimum effective concentration)” value is given as 3 nM.

Take `O=C(Nc1cc(CC2(C(=O)O)CC2)ccc1F)[C@H](c1ccc(Cl)cc1)C1CCCC1(F)F` (single isomer, unassigned; (+)) [Example 67]: the “MEC (minimum effective concentration)” value stood at 3 nM.

Take `C[C@H]([C@H](C(=O)Nc1cc(CC2(C(=O)O)CC2)ccc1F)c1ccc(F)cc1)C(F)(F)F` [Example 22, (+)-1-(4-fluoro-3-{[(2S,3R)-4,4,4-trifluoro-2-(4-fluorophenyl)-3-methylbutanoyl]amino}-benzyl)cyclopropanecarboxylic acid]: the “MEC (minimum effective concentration)” value is listed as 10 nM.

Consider `CCc1ccc([C@@H](C(=O)Nc2cc(CC3(C(=O)O)CC3)ccc2F)[C@@H](C)C(F)(F)F)cc1` [Example 25, (+)-1-(3-{[(2S,3R)-2-(4-ethylphenyl)-4,4,4-tri-fluoro-3-methylbutanoyl]amino}-4-fluorobenzyl)-cyclopropanecarboxylic acid], for which the “MEC (minimum effective concentration)” value was 0.3 nM.

In the case of `C[C@H]([C@H](C(=O)Nc1cccc(CC2(C(=O)O)CC2)c1Cl)c1ccc(Cl)cc1)C(F)(F)F` [Example 27, (+)-1-(2-chloro-3-{[(2S,3R)-2-(4-chlorophenyl)-4,4,4-trifluoro-3-methylbutanoyl]amino}benzyl)-cyclopropanecarboxylic acid], the “MEC (minimum effective concentration)” value came to 100 nM.

Source of the values: US9018258B2, “Substituted 1-benzylcycloalkylcarboxylic acids and the use thereof” (Bayer Intellectual Property GmbH, priority 2010, dated 2015).
